According to PubChem BioAssay (NCI):
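48-hour exposure; five concentrations; linearly interpolated endpoints. GI50 is the concentration that inhibits growth by half. At the TGI there is no net growth.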

Assays:
Assay in all cases: growth of human tumour cells (NCI), 48 h
[1] = test system: HCT-15 colon
[2] = test system: SW-620 colon
[3] = test system: UACC-257 melanoma
[4] = test system: NCI-H522 lung
[5] = test system: HOP-62 NSCLC
[6] = test system: KM12 colon
[7] = test system: SK-MEL-2 melanoma
[8] = test system: MALME-3M melanoma
[9] = test system: K-562 leukemia
[10] = test system: MCF7 breast

| Compound | TGI [1] [µM] | TGI [2] [µM] | TGI [3] [µM] | TGI [4] [µM] | TGI [5] [µM] | TGI [6] [µM] | TGI [7] [µM] | TGI [8] [µM] | TGI [9] [µM] | GI50 [1] [µM] | GI50 [2] [µM] | GI50 [3] [µM] | GI50 [4] [µM] | GI50 [5] [µM] | GI50 [6] [µM] | GI50 [10] [µM] | TGI [10] [µM] | GI50 [7] [µM] | GI50 [9] [µM] | GI50 [8] [µM] |
| --- | --- | --- | --- | --- | --- | --- | --- | --- | --- | --- | --- | --- | --- | --- | --- | --- | --- | --- | --- | --- |
| CC(N)Cc1ccc(Cl)cc1 (centres undefined) | > 100 | > 100 | > 100 | > 100 | > 100 | > 100 | > 100 | > 100 | > 100 |  |  |  |  |  |  |  |  |  |  |  |
| O=C1CSC(c2ccc(-c3nc4ccccc4[nH]3)cc2)=N1 | > 50 | > 50 | > 50 | > 50 | > 50 | > 50 | > 50 |  | 17.5 | 16.7 | > 50 | 20.3 | 37.3 | > 50 | 22.8 | 8.89 | > 50 | 19 | 5.64 |  |
| NC(=O)COc1c(Br)cc(Br)cc1Br | > 100 |  | > 100 | > 100 | > 100 | > 100 | > 100 | > 100 | > 100 |  |  |  |  |  |  |  |  |  |  |  |
| CN(C)CCNC(=O)c1cccc2nc3ccc4cccnc4c3nc12 | 2.33 | 4.92 | 1.63 |  | 1.86 | 3.54 | 2.11 |  | 13.4 |  |  |  |  |  |  |  |  |  |  |  |
| Cc1cc(Br)cc(C)c1NC(=O)C(=O)C(C(=O)c1ccncc1)C1OC(=O)c2ccccc21 (centres undefined) | > 100 | > 100 | > 100 | > 100 | > 100 | > 100 |  | > 100 | > 100 |  |  |  |  |  |  |  |  |  |  |  |
| COc1cccc(OC(=O)c2ccc(C(F)(F)F)nc2Nc2c(C)cccc2Cl)c1 | > 100 | > 100 | > 100 | 38.3 | 82.3 |  | 45.9 |  | > 100 | 54.1 | 46 | 33.4 | 16 | 25.9 |  | 15.8 | 81.2 | 19.4 | 36.5 |  |
| C=C1C2C[C@@H]3OC4CC5O[C@]6(CC5OC4C(C)C3OC(=O)CC3CC[C@@H]4OC5C7OC8C[C@](CCC9CC(=C)[C@H](CCC(C[C@H]1C)O2)O9)(OC7C4O3)O[C@@H]85)C[C@@H]1O[C@@]2(CC(C)[C@@H]3OC(CC(=O)CCO)C(O)C[C@@H]3O2)CC(C)[C@@H]1O6 (some centres undefined) | 0.00109 | 1.32 | 1.52 | < 0.001 | 0.0034 | 0.00228 | < 0.001 | 0.189 |  |  |  |  |  |  |  |  |  |  |  |  |
| C#CCN(N=O)C(=O)NCCCCC(NC(=O)OCc1ccccc1)C(=O)OCc1ccccc1 (centres undefined) | > 100 | 31.1 | > 100 | 30 | > 100 | > 100 | > 100 | 71.6 | 56.9 |  |  |  |  |  |  |  |  |  |  |  |
| COC1=CC(=O)C(Br)=CC1=O | 47 | 54.9 | 31.1 | 23.9 | > 100 |  | 45.7 | 35.6 | 9.1 |  |  |  |  |  |  |  |  |  |  |  |
| Cn1cnc([N+](=O)[O-])c1Sc1nnnn1C |  | 26 | 29.8 | 20.5 | > 100 | > 100 | 37.3 | 26.9 | 42.3 |  |  |  |  |  |  |  |  |  |  |  |
| O=C(N/C(=C\c1c(O)ccc2ccccc12)c1nc2ccccc2[nH]1)c1ccccc1 | > 100 | > 100 | > 100 | > 100 | 76.1 | > 100 | > 100 | > 100 | > 100 |  |  |  |  |  |  |  |  |  |  |  |
| CC1(C)OC2CC3COC(=O)C3CC2O1 (centres undefined) | > 100 | > 100 | > 100 | > 100 | > 100 | > 100 | > 100 | > 100 | > 100 |  |  |  |  |  |  |  |  |  |  |  |
| CCC[CH2][Sn]([CH2]CCC)([CH2]CCC)[O]C(=O)C(OC(C)=O)c1ccccc1 (centres undefined) | 0.28 | 0.273 | 0.284 | 0.287 | 0.287 | 0.23 |  | 0.274 | 0.349 | 0.144 | 0.141 | 0.149 | 0.144 | 0.149 | 0.109 |  |  |  | 0.109 | 0.143 |
| COc1cccc2c1C(=O)c1c(O)c3c(c(O)c1C2=O)C[C@@](O)(C(C)=O)C[C@@H]3OC1CC([N+]([O-])(Cc2ccccc2)Cc2ccccc2)C(O)C(C)O1 (some centres undefined) | 2.76 | 2.54 | 3.17 | 2.68 | 2.98 | 2.9 | 3.46 |  |  |  |  |  |  |  |  |  |  |  |  |  |
| Nc1ncnc2c1sc(=S)n2-c1ccccc1 | > 100 | > 100 | > 100 | > 100 | > 100 | > 100 | > 100 | > 100 | > 100 |  |  |  |  |  |  |  |  |  |  |  |
| O=C1NC(=O)C(=Cc2c3ccccc3cc3ccccc23)C(=O)N1 | > 100 | > 100 |  | > 100 | > 100 |  |  |  | > 100 |  |  |  |  |  |  |  |  |  |  |  |
| COc1cc2c(c(O)c1C)C(=O)CC(c1ccccc1)O2 (centres undefined) | > 100 | > 10 | > 100 | > 100 | > 100 | > 100 | 95.4 | > 100 | > 100 |  |  |  |  |  |  |  |  |  |  |  |
| S=c1nc(C(c2ccccc2)c2ccccc2)[nH][nH]1 | > 100 | > 100 | > 100 | > 100 | > 100 | > 100 | > 100 | > 100 | > 100 |  |  |  |  |  |  |  |  |  |  |  |
| CSC(=Nc1ccccc1Cl)NC(=O)c1ccc(Br)cc1 | > 100 | > 100 | > 100 | > 100 | 55.3 | > 100 | > 100 | > 100 | 45 |  |  |  |  |  |  |  |  |  |  |  |
| Cc1c(N)nc([C@H](CC(N)=O)NC[C@H](N)C(N)=O)nc1C(=O)N[C@H](C(=O)N[C@H](C)[C@@H](O)CC(=O)N[C@H](C(=O)NC(O[C@@H]1O[C@@H](C)[C@@H](N)[C@@H](O)[C@H]1O)C(O)c1nc(-c2nc(C(=O)NCCCCN)cs2)cs1)[C@@H](C)O)[C@@H](O[C@@H]1O[C@@H](CO)[C@@H](O)[C@H](O)[C@@H]1O[C@H]1O[C@H](CO)[C@@H](O)[C@H](OC(N)=O)[C@@H]1O)c1c[nH]cn1 (some centres undefined) | > 50 | > 50 | > 50 | > 50 | > 50 | > 50 | > 50 |  | > 50 |  |  |  |  |  |  |  | > 50 |  |  |  |
| COC1=CC(=O)C2C(C1=O)[C@@H]1c3ccccc3OC(C)(C)[C@H]21 (some centres undefined) | 36.2 | 48 | > 100 | 27.7 | > 100 | > 100 | 71.2 | 34 | 38.1 |  |  |  |  |  |  |  |  |  |  |  |
